Reference: patent US11447460B2, “Compounds and compositions for treating conditions associated with NLRP activity” (Novartis AG, priority 2016, dated 2022)
Read-outs that look alike come from different tables or passages of the source.

Test system: IL-1β production in PMA-differentiated THP-1 cells
Assay: IL-1β production in PMA-differentiated THP-1 cells stimulated with gramicidin (hTHP-1 assay, 2% bovine serum; Bioassays 1 and 2)
Format: cell-based, human
Details: hTHP-1 assay containing 2% bovine serum, Table 12, by Example #, read-out: Average IC50 of compounds in hTHP-1 assay
Procedure: IL-1β Production in PMA-Differentiated THP-1 Cells Stimulated with Gramicidin.
Cell culture-THP-1 cells were purchased from the American Type Culture Collection and sub-cultured according to instructions from the supplier. Prior to experiments, cells were cultured in RPMI 1640 containing 10% heat inactivated FBS, penicillin (100 units/ml) and streptomycin (100 μg/ml), and maintained in log phase prior to experimental setup. Prior to the experiment THP-1 were treated with PMA (Phorbol 12-myristate 13-acetate) (10 μg/ml) for 24 hours. The day of the experiment the media was removed and attaching cells were treated with trypsin for 2 minutes, cells were then collected, washed with PBS (phosphate buffer saline), spin down, resuspended in 2% heat inactivated FBS with RPMI at a concentration of 1×10^6 cells/ml, and 100 ul was plated in a 96 well plate. Cells were incubated with compounds for 1 hours and then stimulated with Gramicidin (5 μM) (Enzo) for 2 hours. Cell free supernatant was collected and the production of IL-1β was evaluated by ELISA. Compounds were dissolved in dimethyl sulfoxide (DMSO) and added to the culture medium to achieve desired concentration (e.g. 100, 30, 10, 3, 1, 0.3 or 0.1 μM). A vehicle only control was run concurrently with each experiment. Final DMSO concentration was 1%.
THP-1 cells were purchased from the American Type Culture Collection and sub-cultured according to instructions from the supplier. Prior to experiments, cells were cultured in complete RPMI 1640 (containing 10% heat inactivated FBS, penicillin (100 units/ml) and streptomycin (100 μg/ml)), and maintained in log phase prior to experimental setup. Prior to the experiment THP-1 were treated with PMA (Phorbol 12-myristate 13-acetate) (20 ng/ml) for 16-18 hours. On the day of the experiment the media was removed and adherent cells were detached with trypsin for 5 minutes. Cells were then harvested, washed with complete RPMI 1640, spun down, resuspended in RPMI 1640 (containing 2% heat inactivated FBS, penicillin (100 units/ml) and streptomycin (100 μg/ml). The cells were plated in a 384-well plate at a density of 50,000 cells/well (final assay volume 50 μl). Compounds were dissolved in dimethyl sulfoxide (DMSO) and added to the culture medium to achieve desired concentration (e.g. 100, 33, 11, 3.7, 1.2, 0.41, 0.14, 0.046, 0.015, 0.0051, 0.0017 μM). Cells were incubated with compounds for 1 hour and then stimulated with gramicidin (5 μM) (Enzo) for 2 hours. Cell free supernatant was collected and the production of IL-10 was evaluated by HTRF (cisbio). A vehicle only control was run concurrently with each experiment. Final DMSO concentration was 0.38%.
Compounds tested with protocols 1 and 2 provided IC50 values that are within the variability of the assay.
Tables 12 and 13 show the biological activity of compounds in hTHP-1 assay containing 2% bovine serum: <1 μM=“++++”; ≥1 and <5 μM=“+++”; ≥5 and <15 μM=“++”; ≥15 and <60 μM=“+”.

| Structure (SMILES) | IC50 (Homo sapiens, THP-1) [µM] | IC50 [µM] |
| --- | --- | --- |
| CC(C)c1cc(F)cc(C(C)C)c1CC(=O)NS(=O)(=O)c1cc2ccccc2o1 [Example 41, N-(benzofuran-2-ylsulfonyl)-2-(4-fluoro-2,6-diisopropylphenyl)acetamide] | 5 to 15 |  |
| CC(C)c1ccc(F)c(C(C)C)c1CC(=O)NS(=O)(=O)c1cccc(C(C)(C)O)c1 [Example 42, 2-(3-fluoro-2,6-diisopropylphenyl)-N-(3-(2-hydroxypropan-2-yl)phenylsulfonyl)acetamide] | 5 to 15 |  |
| CC(C)c1ccc(F)c(C(C)C)c1CC(=O)NS(=O)(=O)c1ccc(C(C)(C)O)cc1 [Example 43, 2-(3-fluoro-2,6-diisopropylphenyl)-N-(4-(2-hydroxypropan-2-yl)phenylsulfonyl)acetamide] | 1 to 5 |  |
| Cc1c(C(C)(C)O)cccc1S(=O)(=O)NC(=O)Cc1c(C(C)C)cc(F)cc1C(C)C [Example 44, 2-(4-fluoro-2,6-diisopropylphenyl)-N-(3-(2-hydroxypropan-2-yl)-2-methylphenylsulfonyl)acetamide] | 5 to 15 |  |
| Cc1ccc(S(=O)(=O)NC(=O)Cc2c(C(C)C)cc(F)cc2C(C)C)cc1C(C)(C)O [Example 45, 2-(4-fluoro-2,6-diisopropylphenyl)-N-(3-(2-hydroxypropan-2-yl)-4-methylphenylsulfonyl)acetamide] | 1 to 5 |  |
| Cc1cc(C(C)(C)O)cc(S(=O)(=O)NC(=O)Cc2c(C(C)C)cc(F)cc2C(C)C)c1 [Example 46, 2-(4-fluoro-2,6-diisopropylphenyl)-N-(3-(2-hydroxypropan-2-yl)-5-methylphenylsulfonyl)acetamide] | 1 to 5 |  |
| Cc1cc(S(=O)(=O)NC(=O)Cc2c(C(C)C)cc(F)cc2C(C)C)ccc1C(C)(C)O [Example 47, 2-(4-fluoro-2,6-diisopropylphenyl)-N-(4-(2-hydroxypropan-2-yl)-3-methylphenylsulfonyl)acetamide] | 1 to 5 |  |
| Cc1cc(C(C)(C)O)ccc1S(=O)(=O)NC(=O)Cc1c(C(C)C)cc(F)cc1C(C)C [Example 48, 2-(4-fluoro-2,6-diisopropylphenyl)-N-(4-(2-hydroxypropan-2-yl)-2-methylphenylsulfonyl)acetamide] | < 1 |  |
| CC(C)c1cc(F)cc(C(C)C)c1CC(=O)NS(=O)(=O)c1cccc(C(C)(C)O)c1F [Example 50, 2-(4-fluoro-2,6-diisopropylphenyl)-N-(2-fluoro-3-(2-hydroxypropan-2-yl)phenylsulfonyl)acetamide] | 1 to 5 |  |
| CC(C)c1cc(F)cc(C(C)C)c1CC(=O)NS(=O)(=O)c1cc(F)cc(C(C)(C)O)c1 [Example 51, 2-(4-fluoro-2,6-diisopropylphenyl)-N-(3-fluoro-5-(2-hydroxypropan-2-yl)phenylsulfonyl)acetamide] | 5 to 15 |  |
| CC(C)c1cc(F)cc(C(C)C)c1CC(=O)NS(=O)(=O)c1cc(C(C)(C)O)ccc1F [Example 52, 2-(4-fluoro-2,6-diisopropylphenyl)-N-(2-fluoro-5-(2-hydroxypropan-2-yl)phenylsulfonyl)acetamide] | 1 to 5 |  |
| CC(C)c1cc(F)cc(C(C)C)c1CC(=O)NS(=O)(=O)c1ccc(C(C)(C)O)c(F)c1 [Example 53, 2-(4-fluoro-2,6-diisopropylphenyl)-N-(3-fluoro-4-(2-hydroxypropan-2-yl)phenylsulfonyl)acetamide] | < 1 |  |
| CC(C)c1cc(F)cc(C(C)C)c1CC(=O)NS(=O)(=O)c1ccc(C(C)(C)O)cc1F [Example 54, 2-(4-fluoro-2,6-diisopropylphenyl)-N-(2-fluoro-4-(2-hydroxypropan-2-yl)phenylsulfonyl)acetamide] | < 1 |  |
| CC(=O)c1ccc(F)c(S(=O)(=O)NC(=O)Cc2c(C(C)C)cc(F)cc2C(C)C)c1 [Example 55] |  | 1 to 5 |
| CC(C)c1cc(F)cc(C(C)C)c1CC(=O)NS(=O)(=O)c1cc(C2(C)OCCO2)ccc1F [Example 56, 2-(4-fluoro-2,6-diisopropylphenyl)-N-(2-fluoro-5-(2-methyl-1,3-dioxolan-2-yl)phenylsulfonyl)acetamide] | < 1 |  |
| CC1(c2ccc(F)c(S(=O)(=O)NC(=O)Cc3c4c(c(F)c5c3CCC5)CCC4)c2)OCCO1 [Example 57, 2-(8-fluoro-1,2,3,5,6,7-hexahydros-indacen-4-yl)-N-(2-fluoro-5-(2-methyl-1,3-dioxolan-2-yl)phenylsulfonyl)acetamide] | 15 to 60 |  |
| CC(C)c1cc(F)cc(C(C)C)c1CC(=O)NS(=O)(=O)c1ccc(S(C)(=O)=O)cc1 [Example 58, 2-(4-fluoro-2,6-diisopropylphenyl)-N-(4-(methylsulfonyl)phenylsulfonyl)acetamide] | 1 to 5 |  |
| CC(C)c1cc(F)cc(C(C)C)c1CC(=O)NS(=O)(=O)c1cccc(S(C)(=O)=O)c1 [Example 59, 2-(4-fluoro-2,6-diisopropylphenyl)-N-(3-(methylsulfonyl)phenylsulfonyl)acetamide] | 15 to 60 |  |
| CC(C)c1cc(Cl)cc(C(C)C)c1CC(=O)NS(=O)(=O)c1ccn(C(C)C)n1 [Example 61, 2-(4-chloro-2,6-diisopropylphenyl)-N-(1-isopropyl-1H-pyrazol-3-ylsulfonyl)acetamide] | 5 to 15 |  |
| CC(C)c1cc(F)cc(C(C)C)c1CC(=O)NS(=O)(=O)c1ccn(C(C)C)n1 [Example 62, 2-(4-fluoro-2,6-diisopropylphenyl)-N-(1-isopropyl-1H-pyrazol-3-ylsulfonyl)acetamide] | 5 to 15 |  |
| CC(C)c1cccc(C(C)C)c1CC(=O)NS(=O)(=O)c1cc(C(C)(C)O)n(-c2ccccc2)n1 [Example 63, 2-(2,6-diisopropylphenyl)-N-(5-(2-hydroxypropan-2-yl)-1-phenyl-1H-pyrazol-3-ylsulfonyl)acetamide] | 5 to 15 |  |
| CC(C)c1cc(F)cc(C(C)C)c1CC(=O)NS(=O)(=O)c1cc(C(C)(C)O)n(-c2ccccc2)n1 [Example 64, 2-(4-fluoro-2,6-diisopropylphenyl)-N-(5-(2-hydroxypropan-2-yl)-1-phenyl-1H-pyrazol-3-ylsulfonyl)acetamide] | 1 to 5 |  |
| CC(C)c1cc(C#N)cc(C(C)C)c1CC(=O)NS(=O)(=O)c1cc(C(C)(C)O)n(-c2ccccc2)n1 [Example 65, 2-(4-cyano-2,6-diisopropylphenyl)-N-(5-(2-hydroxypropan-2-yl)-1-phenyl-1H-pyrazol-3-ylsulfonyl)acetamide] | 5 to 15 |  |
| CC(C)c1cccc(C(C)C)c1CC(=O)NS(=O)(=O)c1cc(C(C)(C)O)n(C)n1 [Example 66, 2-(2,6-diisopropylphenyl)-N-(5-(2-hydroxypropan-2-yl)-1-methyl-1H-pyrazol-3-ylsulfonyl)acetamide] | 15 to 60 |  |
| CC(C)c1cc(F)cc(C(C)C)c1CC(=O)NS(=O)(=O)c1cc(C(C)(C)O)n(C)n1 [Example 67, 2-(4-fluoro-2,6-diisopropylphenyl)-N-(5-(2-hydroxypropan-2-yl)-1-methyl-1H-pyrazol-3-ylsulfonyl)acetamide] | 1 to 5 |  |
| CC(C)c1cc(C#N)cc(C(C)C)c1CC(=O)NS(=O)(=O)c1cc(C(C)(C)O)n(C)n1 [Example 68, 2-(4-cyano-2,6-diisopropylphenyl)-N-(5-(2-hydroxypropan-2-yl)-1-methyl1H-pyrazol-3-ylsulfonyl)acetamide] | 5 to 15 |  |
| CC(C)(O)c1cnc(S(=O)(=O)NC(=O)Cc2c3c(c(F)c4c2CCC4)CCC3)s1 [Example 69, 2-(8-fluoro-1,2,3,5,6,7-hexahydros-indacen-4-yl)-N-(5-(2-hydroxypropan-2-yl)thiazol-2-ylsulfonyl)acetamide] | 15 to 60 |  |
| CC(C)c1cc(Cl)cc(C(C)C)c1CC(=O)NS(=O)(=O)c1ncc(C(C)(C)O)s1 [Example 70, 2-(4-chloro-2,6-diisopropylphenyl)-N-(5-(2-hydroxypropan-2-yl)thiazol-2-ylsulfonyl)acetamide] | < 1 |  |
| CC(C)c1ccc(F)c(C(C)C)c1CC(=O)NS(=O)(=O)c1ncc(C(C)(C)O)s1 [Example 71, 2-(3-fluoro-2,6-diisopropylphenyl)-N-(5-(2-hydroxypropan-2-yl)thiazol-2-ylsulfonyl)acetamide] | 1 to 5 |  |
